Several values for one entry are separate records, joined by “and”; a condition that tells them apart may be missing. Equal entries are not always repeated. ± gives the expanded uncertainty stated by the source.
Details: 101.33 kPa, Liquid; for mass density: Vibrating tube method; for speed of sound: Single path-length method

CCCCCCCC[n+]1ccn(C)c1.F[P-](F)(F)(F)(F)F [1-octyl-3-methylimidazolium hexafluorophosphate]
Details | viscosity
269.96 K, Cone and plate viscometry | 8278 ± 880 mPa·s
270.27 K, Cone and plate viscometry | 7970.4 ± 830 mPa·s
270.37 K, Cone and plate viscometry | 7819.7 ± 810 mPa·s
270.91 K, Cone and plate viscometry | 7509 ± 780 mPa·s
271.66 K, Cone and plate viscometry | 6771 ± 690 mPa·s
272.33 K, Cone and plate viscometry | 6420 ± 640 mPa·s
272.44 K, Cone and plate viscometry | 6269.6 ± 630 mPa·s
273.24 K, Cone and plate viscometry | 5792.5 ± 570 mPa·s
274.02 K, Cone and plate viscometry | 5350.3 ± 520 mPa·s
274.63 K, Cone and plate viscometry | 4992.4 ± 480 mPa·s
274.8 K, Cone and plate viscometry | 4951.8 ± 480 mPa·s
274.81 K, Cone and plate viscometry | 4903 ± 470 mPa·s
274.88 K, Cone and plate viscometry | 4879 ± 470 mPa·s
275.31 K, Cone and plate viscometry | 4651.9 ± 440 mPa·s
275.44 K, Cone and plate viscometry | 4635.1 ± 440 mPa·s
275.56 K, Cone and plate viscometry | 4593.6 ± 430 mPa·s
276.14 K, Cone and plate viscometry | 4334 ± 410 mPa·s
276.34 K, Cone and plate viscometry | 4268.2 ± 400 mPa·s
276.47 K, Cone and plate viscometry | 4216.3 ± 390 mPa·s
276.9 K, Cone and plate viscometry | 4053 ± 370 mPa·s
277.09 K, Cone and plate viscometry | 3957.1 ± 360 mPa·s
277.68 K, Cone and plate viscometry | 3777 ± 340 mPa·s
277.76 K, Cone and plate viscometry | 3737 ± 340 mPa·s
277.85 K, Cone and plate viscometry | 3693.3 ± 330 mPa·s
278.15 K, Concentric cylinders viscometry | 3543 ± 200 mPa·s
278.46 K, Cone and plate viscometry | 3522.8 ± 320 mPa·s
278.6 K, Cone and plate viscometry | 3439.8 ± 310 mPa·s
279.19 K, Cone and plate viscometry | 3241 ± 290 mPa·s
279.24 K, Cone and plate viscometry | 3279.4 ± 290 mPa·s
279.34 K, Cone and plate viscometry | 3221.2 ± 280 mPa·s
280.01 K, Cone and plate viscometry | 3050.1 ± 270 mPa·s
280.09 K, Cone and plate viscometry | 3002.8 ± 260 mPa·s
280.77 K, Cone and plate viscometry | 2845.3 ± 250 mPa·s
280.78 K, Cone and plate viscometry | 2866 ± 250 mPa·s
280.84 K, Cone and plate viscometry | 2803.8 ± 240 mPa·s
281.53 K, Cone and plate viscometry | 2656.6 ± 230 mPa·s
281.59 K, Cone and plate viscometry | 2620.4 ± 220 mPa·s
282.29 K, Cone and plate viscometry | 2486.9 ± 210 mPa·s
282.33 K, Cone and plate viscometry | 2458 ± 210 mPa·s
282.53 K, Cone and plate viscometry | 2412.6 ± 200 mPa·s
283.04 K, Cone and plate viscometry | 2331.3 ± 190 mPa·s
283.08 K, Cone and plate viscometry | 2299.1 ± 190 mPa·s
283.15 K, Concentric cylinders viscometry | 2263.1 ± 120 mPa·s
283.79 K, Cone and plate viscometry | 2174 ± 180 mPa·s
283.83 K, Cone and plate viscometry | 2154.4 ± 180 mPa·s
284.54 K, Cone and plate viscometry | 2037.4 ± 160 mPa·s
284.55 K, Cone and plate viscometry | 2001 ± 160 mPa·s
284.58 K, Cone and plate viscometry | 2017.2 ± 160 mPa·s
285.28 K, Cone and plate viscometry | 1916 ± 150 mPa·s
285.32 K, Cone and plate viscometry | 1893.2 ± 150 mPa·s
286.03 K, Cone and plate viscometry | 1799.7 ± 140 mPa·s
286.06 K, Cone and plate viscometry | 1779.6 ± 140 mPa·s
286.78 K, Cone and plate viscometry | 1697.1 ± 130 mPa·s
286.8 K, Cone and plate viscometry | 1672.4 ± 130 mPa·s
287.52 K, Cone and plate viscometry | 1594.4 ± 120 mPa·s
287.55 K, Cone and plate viscometry | 1572.8 ± 120 mPa·s
288.15 K, Concentric cylinders viscometry | 1475.1 ± 69 mPa·s
288.27 K, Cone and plate viscometry | 1496.8 ± 110 mPa·s
288.29 K, Cone and plate viscometry | 1479.3 ± 110 mPa·s
289.02 K, Cone and plate viscometry | 1407.5 ± 110 mPa·s
289.03 K, Cone and plate viscometry | 1391.9 ± 100 mPa·s
289.76 K, Cone and plate viscometry | 1327.8 ± 98 mPa·s
289.78 K, Cone and plate viscometry | 1313.9 ± 97 mPa·s
290.5 K, Cone and plate viscometry | 1253.5 ± 92 mPa·s
290.52 K, Cone and plate viscometry | 1241 ± 91 mPa·s
291.24 K, Cone and plate viscometry | 1183.2 ± 86 mPa·s
291.27 K, Cone and plate viscometry | 1168.4 ± 84 mPa·s
291.98 K, Cone and plate viscometry | 1115.8 ± 80 mPa·s
292 K, Cone and plate viscometry | 1101.8 ± 78 mPa·s
292.73 K, Cone and plate viscometry | 1053.3 ± 74 mPa·s
292.75 K, Cone and plate viscometry | 1040.1 ± 73 mPa·s
293.15 K, Concentric cylinders viscometry | 1001.1 ± 42 mPa·s
293.48 K, Cone and plate viscometry | 994.4 ± 70 mPa·s
293.49 K, Cone and plate viscometry | 984.3 ± 69 mPa·s
294.22 K, Cone and plate viscometry | 932.9 ± 64 mPa·s
294.25 K, Cone and plate viscometry | 929.4 ± 64 mPa·s
294.96 K, Cone and plate viscometry | 882.6 ± 60 mPa·s
295.02 K, Cone and plate viscometry | 879.2 ± 60 mPa·s
295.71 K, Cone and plate viscometry | 844.7 ± 57 mPa·s
295.79 K, Cone and plate viscometry | 829.3 ± 56 mPa·s
296.47 K, Cone and plate viscometry | 798 ± 53 mPa·s
296.57 K, Cone and plate viscometry | 784.2 ± 52 mPa·s
297.2 K, Cone and plate viscometry | 757 ± 50 mPa·s
297.33 K, Cone and plate viscometry | 741.5 ± 48 mPa·s
297.94 K, Cone and plate viscometry | 718 ± 46 mPa·s
298.08 K, Cone and plate viscometry | 705.1 ± 46 mPa·s
298.15 K, Concentric cylinders viscometry | 691.2 ± 27 mPa·s
298.69 K, Cone and plate viscometry | 682.3 ± 44 mPa·s
298.82 K, Cone and plate viscometry | 668.2 ± 43 mPa·s
299.43 K, Cone and plate viscometry | 647.5 ± 41 mPa·s
299.55 K, Cone and plate viscometry | 632.9 ± 40 mPa·s
300.16 K, Cone and plate viscometry | 614.6 ± 38 mPa·s
300.28 K, Cone and plate viscometry | 601.2 ± 37 mPa·s
300.91 K, Cone and plate viscometry | 584.1 ± 36 mPa·s
301 K, Cone and plate viscometry | 572.3 ± 35 mPa·s
301.65 K, Cone and plate viscometry | 555.5 ± 34 mPa·s
301.73 K, Cone and plate viscometry | 545 ± 33 mPa·s
302.39 K, Cone and plate viscometry | 528.9 ± 32 mPa·s
302.46 K, Cone and plate viscometry | 519.8 ± 31 mPa·s
303.14 K, Cone and plate viscometry | 502.9 ± 30 mPa·s
303.15 K, Concentric cylinders viscometry | 490 ± 17 mPa·s
303.19 K, Cone and plate viscometry | 494.3 ± 30 mPa·s
303.88 K, Cone and plate viscometry | 478.8 ± 28 mPa·s
303.92 K, Cone and plate viscometry | 470.6 ± 28 mPa·s
304.62 K, Cone and plate viscometry | 450.9 ± 26 mPa·s
304.65 K, Cone and plate viscometry | 449.1 ± 26 mPa·s
305.37 K, Cone and plate viscometry | 434.2 ± 25 mPa·s
305.39 K, Cone and plate viscometry | 429.1 ± 25 mPa·s
306.11 K, Cone and plate viscometry | 414.9 ± 24 mPa·s
306.13 K, Cone and plate viscometry | 409.9 ± 23 mPa·s
306.85 K, Cone and plate viscometry | 396 ± 22 mPa·s
306.86 K, Cone and plate viscometry | 390.9 ± 22 mPa·s
307.59 K, Cone and plate viscometry | 378 ± 21 mPa·s
307.6 K, Cone and plate viscometry | 372.5 ± 21 mPa·s
308.34 K, Cone and plate viscometry | 361 ± 20 mPa·s
308.35 K, Cone and plate viscometry | 356 ± 20 mPa·s
309.09 K, Cone and plate viscometry | 339.9 ± 19 mPa·s and 344.9 ± 19 mPa·s
309.82 K, Cone and plate viscometry | 329.8 ± 18 mPa·s
309.84 K, Cone and plate viscometry | 325.7 ± 18 mPa·s
310.57 K, Cone and plate viscometry | 311.5 ± 17 mPa·s and 315.9 ± 17 mPa·s
311.31 K, Cone and plate viscometry | 301.8 ± 16 mPa·s
311.32 K, Cone and plate viscometry | 297.7 ± 16 mPa·s
312.05 K, Cone and plate viscometry | 288.8 ± 15 mPa·s
312.06 K, Cone and plate viscometry | 284.9 ± 15 mPa·s
312.8 K, Cone and plate viscometry | 273.3 ± 14 mPa·s and 275.7 ± 14 mPa·s
313.15 K, Concentric cylinders viscometry | 266.1 ± 7.8 mPa·s
313.54 K, Cone and plate viscometry | 264.8 ± 14 mPa·s
313.55 K, Cone and plate viscometry | 262 ± 14 mPa·s
314.28 K, Cone and plate viscometry | 254 ± 13 mPa·s
314.29 K, Cone and plate viscometry | 251.2 ± 13 mPa·s
315.03 K, Cone and plate viscometry | 240.6 ± 12 mPa·s and 243.2 ± 12 mPa·s
315.77 K, Cone and plate viscometry | 230.6 ± 12 mPa·s and 233 ± 12 mPa·s
316.51 K, Cone and plate viscometry | 221.6 ± 11 mPa·s and 223.5 ± 11 mPa·s
317.25 K, Cone and plate viscometry | 213.6 ± 11 mPa·s
317.26 K, Cone and plate viscometry | 214.9 ± 11 mPa·s
317.99 K, Cone and plate viscometry | 206.5 ± 10 mPa·s
318 K, Cone and plate viscometry | 204 ± 10 mPa·s
318.74 K, Cone and plate viscometry | 196.1 ± 9.5 mPa·s and 198.4 ± 9.6 mPa·s
319.48 K, Cone and plate viscometry | 188.3 ± 9.1 mPa·s and 190.7 ± 9.3 mPa·s
320.22 K, Cone and plate viscometry | 181 ± 8.8 mPa·s and 183.1 ± 8.9 mPa·s
320.96 K, Cone and plate viscometry | 174.4 ± 8.4 mPa·s
320.97 K, Cone and plate viscometry | 176 ± 8.4 mPa·s
321.71 K, Cone and plate viscometry | 168.1 ± 7.9 mPa·s
321.72 K, Cone and plate viscometry | 169.5 ± 8 mPa·s
322.44 K, Cone and plate viscometry | 163.6 ± 7.7 mPa·s
322.46 K, Cone and plate viscometry | 161.6 ± 7.6 mPa·s
323.19 K, Cone and plate viscometry | 155.4 ± 7.2 mPa·s and 157.1 ± 7.3 mPa·s
323.93 K, Cone and plate viscometry | 149.8 ± 7 mPa·s
323.94 K, Cone and plate viscometry | 151.1 ± 7 mPa·s
324.68 K, Cone and plate viscometry | 144.3 ± 6.7 mPa·s
324.69 K, Cone and plate viscometry | 145.6 ± 6.7 mPa·s
325.43 K, Cone and plate viscometry | 139.3 ± 6.4 mPa·s
325.44 K, Cone and plate viscometry | 140.5 ± 6.4 mPa·s
326.17 K, Cone and plate viscometry | 135.3 ± 6.2 mPa·s
326.18 K, Cone and plate viscometry | 135.7 ± 6.2 mPa·s
326.91 K, Cone and plate viscometry | 129.5 ± 5.9 mPa·s
326.92 K, Cone and plate viscometry | 130.8 ± 6 mPa·s
327.65 K, Cone and plate viscometry | 124.9 ± 5.6 mPa·s
327.67 K, Cone and plate viscometry | 126 ± 5.7 mPa·s
328.39 K, Cone and plate viscometry | 120.8 ± 5.4 mPa·s
328.46 K, Cone and plate viscometry | 121.6 ± 5.4 mPa·s
329.14 K, Cone and plate viscometry | 116.8 ± 5.2 mPa·s and 117.6 ± 5.2 mPa·s
329.88 K, Cone and plate viscometry | 112.8 ± 5 mPa·s and 113.7 ± 5 mPa·s
330.62 K, Cone and plate viscometry | 108.9 ± 4.8 mPa·s
330.63 K, Cone and plate viscometry | 109.9 ± 4.9 mPa·s
331.36 K, Cone and plate viscometry | 105.1 ± 4.6 mPa·s
331.37 K, Cone and plate viscometry | 106 ± 4.6 mPa·s
332.1 K, Cone and plate viscometry | 102.6 ± 4.5 mPa·s

Details | mass density | speed of sound [m/s]
278.15 K | 1252.41 ± 3 kg/m3 and 1252.42 ± 3 kg/m3 | –
278.16 K | 1252.41 ± 3 kg/m3 | –
283.15 K | 1248.4 ± 3 kg/m3 [middle of 4 runs] | 1460.8 ± 1.4
288.15 K | 1244.12 ± 3 kg/m3 | –
293.15 K | 1240.16 ± 3 kg/m3 and 1240.34 ± 3 kg/m3 and 1240.35 ± 3 kg/m3 | 1425.5 ± 1.4
293.17 K | 1240.24 ± 3 kg/m3 | –
298.15 K | 1236.18 ± 3 kg/m3 | –
303.15 K | 1232.68 ± 3 kg/m3 and 1232.44 ± 3 kg/m3 and 1232.4 ± 3 kg/m3 | 1394.9 ± 1.4
303.16 K | 1232.32 ± 3 kg/m3 | –
313.15 K | 1224.86 ± 3 kg/m3 and 1224.73 ± 3 kg/m3 and 1224.76 ± 3 kg/m3 | –
313.16 K | 1224.63 ± 3 kg/m3 | 1367 ± 1.4
323.15 K | 1217.09 ± 2.9 kg/m3 and 1217.15 ± 3 kg/m3 | 1342 ± 1.4
323.16 K | 1217.34 ± 3 kg/m3 | –
